Assay results from ChEMBL document CHEMBL1146645, “Synthesis and structure-activity relationships of 3-substituted 1,4-dihydro-4-oxo-1-(2-thiazolyl)-1,8-naphthyridines as novel antitumor agents” (Bioorg Med Chem Lett, 2004).
Values after ≈ are worked out from the molar mass of the structure shown.

Experiments:
P388 = assay: In vitro cytotoxicity was measured towards murine lymphocytic leukemia P388 cells; assay type: functional, cell-based; conditions: Mus musculus
Escherichia coli = assay: In vitro antibacterial activity of compound towards Escherichia coli NIHJ JC-2; assay type: functional
Staphylococcus aureus = assay: In vitro antibacterial activity towards Staphylococcus aureus 209 JC-1; assay type: functional
C-33-A = assay: Cytotoxic activity against human C-33A cervix tumor cell line; assay type: functional, cell-based
MKN-45 = assay: Cytotoxic activity against human MKN45 stomach tumor cell line; assay type: functional, cell-based
A-427 = assay: cells; assay type: functional, cell-based; conditions: Homo sapiens
Description: Cytotoxic activity against human A-427 lung tumor cell line

Mus musculus [1] = assay: In vivo antitumor activity against murine P388 leukemia measured as median survival of treated mice to that of control (T/C) at a dose of 50 mg/kg; assay type: functional
WiDr = assay: Cytotoxic activity against human WiDr colon tumor cell line; assay type: functional, cell-based
Mus musculus [2] = assay: In vivo antitumor activity against murine P388 leukemia measured as median survival of treated mice to that of control (T/C) at a dose of […]; assay type: functional
AZ-521 cell line = assay: cells; assay type: functional, cell-based; conditions: Homo sapiens
Description: Cytotoxic activity against human AZ-521 stomach tumor cell line

KB = assay: Cytotoxic activity against human KB nasopha tumor cell line; assay type: functional, cell-based
HMV-2 cell line = assay: Cytotoxic activity against human HMV-2 melanoma tumor cell line; assay type: functional, cell-based

Compound | MIC (Escherichia coli) | MIC (Staphylococcus aureus) | IC50 (P388) | IC50 (C-33-A) | IC50 (MKN-45) | IC50 (A-427) | T/C (Mus musculus [1]) | IC50 (WiDr) | T/C (Mus musculus [2]) | T/C (Mus musculus [2]; dose […]) | IC50 (AZ-521 cell line) | IC50 (KB) | IC50 (HMV-2 cell line) | T/C (Mus musculus [2]; dose […] mg/kg, […])
CN[C@H]1CN(c2nc3c(cc2F)c(=O)c(C=O)cn3-c2nccs2)C[C@@H]1OC | 100 µg/mL (≈ 248 µM) | 12.5 µg/mL (≈ 31 µM) | 0.0309 µg/mL (≈ 0.0766 µM) | 0.161 µg/mL (≈ 0.399 µM) | 0.144 µg/mL (≈ 0.357 µM) | 0.0749 µg/mL (≈ 0.186 µM) | 325% | 0.264 µg/mL (≈ 0.654 µM) | 188% | 250% | 0.0307 µg/mL (≈ 0.0761 µM) | 0.179 µg/mL (≈ 0.444 µM) | 0.214 µg/mL (≈ 0.53 µM) | –
NC1CCN(c2nc3c(cc2F)c(=O)c(Cc2ccccc2)cn3-c2nccs2)C1 (stereo not given) | 100 µg/mL (≈ 237 µM) | 50 µg/mL (≈ 119 µM) | 0.0178 µg/mL (≈ 0.0422 µM) | – | – | – | – | – | – | – | – | – | – | –
COc1cc([C@@H]2c3cc4c(cc3[C@@H](O[C@@H]3O[C@@H]5CO[C@@H](C)O[C@H]5[C@H](O)[C@H]3O)[C@H]3COC(=O)[C@H]23)OCO4)cc(OC)c1O [ETOPOSIDE] | – | – | – | 0.084 µg/mL (≈ 0.143 µM) | 0.49 µg/mL (≈ 0.833 µM) | – | >375% | 1.63 µg/mL (≈ 2.77 µM) | 175% | – | 0.08 µg/mL (≈ 0.136 µM) | 0.201 µg/mL (≈ 0.342 µM) | 0.298 µg/mL (≈ 0.506 µM) | 250%
NC1CCN(c2nc3c(cc2F)c(=O)c(C(=O)O)cn3-c2nccs2)C1 (stereo not given) | 0.025 µg/mL (≈ 0.0666 µM) | 0.39 µg/mL (≈ 1.04 µM) | 0.0211 µg/mL (≈ 0.0562 µM) | – | – | – | >375% | – | 150% | 213% | – | – | – | –

Second part, led by results:

MIC (Escherichia coli) | MIC (Staphylococcus aureus) | Compound | IC50 (P388) | IC50 (C-33-A) | IC50 (MKN-45) | IC50 (A-427) | T/C (Mus musculus [1]) | IC50 (WiDr) | T/C (Mus musculus [2]) | T/C (Mus musculus [2]; dose […]) | IC50 (AZ-521 cell line) | IC50 (KB) | IC50 (HMV-2 cell line) | T/C (Mus musculus [2]; dose […] mg/kg, […])
12.5 µg/mL (≈ 31 µM) | 50 µg/mL (≈ 124 µM) | CCOC(=O)c1cn(-c2nccs2)c2nc(N3CCC(N)C3)c(F)cc2c1=O (stereo not given) | 0.136 µg/mL (≈ 0.337 µM) | – | – | – | – | – | – | – | – | – | – | –
0.78 µg/mL (≈ 2.25 µM) | 50 µg/mL (≈ 144 µM) | NC1CCN(c2nc3c(cc2F)c(=O)c(O)cn3-c2nccs2)C1 (stereo not given) | 0.168 µg/mL (≈ 0.484 µM) | – | – | – | – | – | – | – | – | – | – | –
> 100 µg/mL | > 100 µg/mL | NC(=O)c1cn(-c2nccs2)c2nc(N3CCC(N)C3)c(F)cc2c1=O (stereo not given) | 0.269 µg/mL (≈ 0.718 µM) | – | – | – | – | – | – | – | – | – | – | –
